# d = 2'-deoxy (DNA)
# Experiments:
# [1] = tested on: CFPAC-1; set-up: method as in Mazzone et al. [23]; conditions: CFPAC-1, 10 μM, ref Mazzone et al. [23]; cited from earlier work
# [2] = biological target: T1, CaCC current (Homo sapiens, UniProt Q5XXA6); test: Whole-cell patch-clamp of CaCC currents in PDAC cells, 1 μM Ca2+ in pipette solution; assay type: cell-based; conditions: for decrease of CaCC currents: siRNA 50 nM, compared to scrambled siRNA (MOCK)
# T1 construct: Whole-cell patch-clamp recordings identified large Ca^2+ and voltage-dependent Cl^− currents in PDAC cells; endogenous in cells; host or cells: Capan-1, AsPC-1, BxPC-3 (human PDAC cell lines, ATCC)
# T1 sequence (Q5XXA6 1-986): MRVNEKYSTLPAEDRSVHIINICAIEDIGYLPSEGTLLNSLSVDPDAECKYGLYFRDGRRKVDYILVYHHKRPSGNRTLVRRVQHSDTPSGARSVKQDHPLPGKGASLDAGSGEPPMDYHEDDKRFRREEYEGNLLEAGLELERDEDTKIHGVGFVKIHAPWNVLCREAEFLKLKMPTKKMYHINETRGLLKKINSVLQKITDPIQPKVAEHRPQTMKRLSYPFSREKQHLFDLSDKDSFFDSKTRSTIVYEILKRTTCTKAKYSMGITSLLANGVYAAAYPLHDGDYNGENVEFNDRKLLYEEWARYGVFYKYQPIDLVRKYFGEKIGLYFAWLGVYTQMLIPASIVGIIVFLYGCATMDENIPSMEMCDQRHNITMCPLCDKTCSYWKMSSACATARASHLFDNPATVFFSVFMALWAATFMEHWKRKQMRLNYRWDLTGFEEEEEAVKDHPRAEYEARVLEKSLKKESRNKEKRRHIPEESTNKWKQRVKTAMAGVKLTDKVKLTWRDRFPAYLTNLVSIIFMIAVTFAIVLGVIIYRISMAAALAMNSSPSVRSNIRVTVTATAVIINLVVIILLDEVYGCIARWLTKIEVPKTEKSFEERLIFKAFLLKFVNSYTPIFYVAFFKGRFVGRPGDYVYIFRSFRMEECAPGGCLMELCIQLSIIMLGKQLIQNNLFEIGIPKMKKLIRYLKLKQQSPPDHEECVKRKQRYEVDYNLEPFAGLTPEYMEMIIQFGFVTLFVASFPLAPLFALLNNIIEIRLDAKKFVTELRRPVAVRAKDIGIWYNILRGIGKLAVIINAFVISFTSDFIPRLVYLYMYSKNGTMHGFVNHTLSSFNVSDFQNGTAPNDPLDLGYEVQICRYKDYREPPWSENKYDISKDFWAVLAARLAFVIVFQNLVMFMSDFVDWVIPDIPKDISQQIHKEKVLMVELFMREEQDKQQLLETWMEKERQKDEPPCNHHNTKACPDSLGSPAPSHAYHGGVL
# Description: Cells were grown on poly-L-lysine coated coverslips. For knockdown experiments, cells were transfected with siRNA targeting ANO1 or scrambled siRNA shortly after complete attachment of the cells (approx. 3 h after plating). Currents were measured 36–48 h after transfection. Whole-cell patch-clamp recordings were performed using the Axopatch 200B amplifier interfaced to a Digidata 1440A controlled by pClamp10 software (Molecular Devices, USA). Analogue signals were acquired at 2.5 kHz and filtered at 1 kHz. […] An agar bridge made of 3 % agar and 97 % of the bath solution containing NMDG-Cl (below) was used as reference electrode. Current activations were recorded from an output holding potential, V out = 0 mV with ramp protocols spanning from −100 to 100 mV over 1 s and run continuously with 15-s intervals. Step protocols between −100 to 120 mV were generated from V out = 0 mV with step increments of 20 mV and lengths of 2 s. Liquid junction potentials (V lj) were estimated as described in [10] with membrane potentials calculated as, V m = V out − V lj. Series resistance was compensated by 60–70 %. All recordings were performed at room temperature (18–23 °C). Instantaneous currents were measured 1 ms after each voltage step. The data was fitted using the Goldman–Hodgkin–Katz (GHK) current equation.1 ICl^−=Pz^2F^2V/RTCo−Cie^zFV/RT/1−e^zFV/RT
# One micromolar free Ca^2+ pipette solution include the following (in mM): 100 CsAsp, 40 CsCl, 4.34 CaCl2, 4 Na2ATP, 1 MgCl2, 5 EGTA, 10 HEPES, pH 7.2, osmolality 295 mosmol/kg or 0 μM free Ca^2+ solution containing no CaCl2 and 10 mM EGTA. Standard bath solution include the following (in mM): 150 NaCl, 1.5 CaCl2, 1 MgCl2, 10 glucose, 10 HEPES, pH 7.4, osmolality 315 mosmol/kg (adjusted with D-mannitol). Isotonic solution include the following (in mM): 85 NaCl, 2 MgCl2, 1.5 CaCl2, 10 glucose, 10 HEPES, pH 7.4, of osmolality 315 mosmol/kg (adjusted with D-mannitol). The hypotonic solution with osmolality of 210 mosmol/kg was obtained by omitting D-mannitol from the isotonic solution. For experiments testing efficiency of an inhibitor, NaCl was replaced by N-methyl-D-glucamine chloride (NMDG-Cl) after seal formation. All osmolalities were measured in a Wescor Vapro model 5520 osmometer (Wescor Inc., USA) calibrated by the manufacturer’s Optimol standard solutions.
# Whole-cell patch-clamp recordings with 1 μM Ca^2+ in pipette solution. a Representative current traces measured in Capan-1 cells upon exposure to different inhibitors. b Quantification of CaCC currents at +67 mV recorded with inhibitors compared to currents in presence of DMSO; currents of siANO1 cells were compared to those of MOCK transfected cells. c Steady-state I–V relationships of cells transfected with either scrambled siRNA (MOCK) or siRNA targeting ANO1. d Densitometric quantification of Western blot analysis of siRNA knockdown. β-Actin was used as a loading control. (n) = number of individual experiments
"inhibition at 20 µM ([2]; ASPC1, AsPC-1 cells, inhibitor 20 μM, at +67 mV, vs DMSO)","inhibition of CaCC current ([2]; BxPC-3 cells, inhibitor 20 μM, at +67 mV, vs DMSO)","inhibition at 20 µM ([2]; Capan-1 cells, inhibitor 20 μM, at +67 mV, vs DMSO)",Compound,proliferation [1],decrease of CaCC currents ([2]; AsPC-1 cells),decrease of CaCC currents ([2]; BxPC-3 cells),decrease of CaCC currents ([2]; Capan-1 cells)
29 ± 2%,ineffective,43 ± 8%,"CCc1c(C)nc(SCC(=O)Nc2nc(-c3ccc(OC)cc3)cs2)[nH]c1=O [T16Ainh-A01, 2-[(5-Ethyl-1,6-dihydro-4-methyl-6-oxo-2-pyrimidinyl)thio]-N-[4-(4-methoxyphenyl)-2-thiazolyl]acetamide]",decrease in proliferation,–,–,–
–,–,–,"siRNA targeting ANO1: Predesigned siRNA oligo from Sigma-Aldrich, 5′-CCUUCAACGUCAGUGACUU[dT][dT]-3′, 5′-AAGUCACUGACGUUGAAGG[dT][dT]-3′ (RNA, 3' dTdT, backbone not given here)",–,89 ± 51%,84 ± 23%,88 ± 42%
